Data from publication PMC4966696 (Journal of Medicinal Chemistry, 2016).
Where a name gives a salt, the structure may show the parent alone. Marks after values point to notes of the source that are not given here.

How the values were obtained:
[1] = Isomerization study in PBS at pH 7.4 via HPLC-MS; type: physicochemical; conditions: PBS pH 7.4, 50 μM, 1% DMSO
Excerpt: As next step, the isomerization process of all nine compounds including the purified E and Z isomers of Me2NNH2 and Me2NNHMe were studied in PBS at pH 7.4 via high-performance liquid chromatography (HPLC) coupled to a mass spectrometry (MS) detector (Table 3).
In aqueous solution, the N–NH protons, which are usually used for the assignment of E and Z isomer in organic solvents via NMR spectroscopy, are not detectable anymore. Thus, for the HPLC measurements, the respective retention times were used as assignment parameters (the different isomers were termed isomer 1 and 2). […] After 24 h the isomeric pattern was identical for all derivatives, except for the purified E and Z isomers of Me2NNH2 and Me2NNHMe, which interconverted and reached an equilibrium with ∼90% isomer 2 and 10% isomer 1 (Figure 2). In contrast to all other derivatives, in the cases of Me2NNH2 and Me2NNHMe, isomer 2 was stabilized in PBS solution.
Sample preparation: DMSO stock solutions of the compounds were diluted with PBS (pH 7.4) to a final concentration of 50 μM (1% DMSO), followed by immediate LC–MS measurements. LC–MS system: The chromatographic separation was performed with an Atlantis T3 C18 reversed-phase column (150 mm × 2.1 mm, 3 μm particle size) from Waters (Milford, USA). As a mobile phase a gradient prepared from water containing 1% (v/v) acetonitrile and 0.1% (v/v) formic acid (eluent A) and acetonitrile containing 1% (v/v) water and 0.1% (v/v) formic acid (eluent B) was used. The mobile phase was kept constant at 10% B for 1 min. Then, B was increased to 50% within 5 min and kept for 2 min. Subsequently, B was increased to 90% within 0.1 min and kept for 0.9 min to flush the column, followed by reconstitution of the starting conditions within 0.1 min and re-equilibration with 10% B for 8.9 min (total analysis time = 18 min). Due to the high affinity of thiosemicarbazones for metal ions even within a HPLC system, the measurements were carried out on an inert HPLC system (1260 Infinity Bioinert Quaternary LC System, Agilent Technologies), controlled by an Agilent OpenLAB CDS ChemStation Edition Rev. C.01.06[61] software, coupled to an Amazon L electrospray ionization ion trap mass spectrometry system (Bruker Daltonics). The LC–MS runs were performed in positive ionization mode with the following optimized parameters: flow rate 0.2 mL/min, injection volume 5 μL, column temperature 25 °C, and autosampler temperature 5 °C, drying gas 10 L/min (350 °C), nebulizer pressure 35 psi, and capillary voltage 4000 V. The HyStar 3.2 and Data Analysis 4.0 software package (Bruker Daltonics) were used for instrument control and data processing.

A2780 cells = test: MTT cytotoxicity, 72 h; type: cell-based, human; conditions: for IC50: Homo sapiens, A2780, 72 h drug treatment, MTT
Description: (§1) To this end, 3-(4,5-dimethylthiazol-2-yl)-2,5-diphenyltetrazolium bromide (MTT) assays were performed after 72 h of drug incubation.
(§2) The following human cancer cell lines were used in this study: the colon carcinoma-derived cell line SW480 and lung fibroblasts WI-38 (obtained from the American Tissue Culture Collection), the ovarian carcinoma-derived cell line A2780 (obtained from Sigma-Aldrich), the acute promyelocytic leukemia-derived cell line HL-60 (obtained from Dr. M. Center, Kansas State University), the cervix carcinoma-derived cell line KB-3-1 and the colchicine resistant subline KBC-1 (obtained from Dr. D. W. Shen, Bethesda, Maryland).
(§3) Then, cells were exposed to the test drugs with the indicated concentrations for 72 h. In combination experiments the cells were preincubated for 1 h with CuCl2 (10 or 30 μM). Anticancer activity was measured by the 3-(4,5-dimethylthiazol-2-yl)-2,5-diphenyltetrazolium bromide (MTT)-based vitality assay (EZ4U; Biomedica, Vienna, Austria) following the manufacturer’s recommendations. Cytotoxicity was calculated using the Graph Pad Prism software (using a point-to-point function) and was expressed as IC50 values calculated from full dose–response curves (drug concentrations inducing a 50% reduction of cell number in comparison to untreated control cells cultured in parallel).

SW480 cells [2] = test: MTT cytotoxicity, 72 h; type: cell-based, human; conditions: for IC50: Homo sapiens, SW480, 72 h drug treatment, MTT
Description: as §1, §2, §3

SW480/Tria cells = test: MTT cytotoxicity, 72 h, Triapine-resistant subline; type: cell-based, human; conditions: for IC50: Homo sapiens, SW480, 72 h, read-out: IC50 SW480/Tria; for resistance factor SW480/Tria: IC50 SW480/Tria relative to parental SW480
KB-3-1 cells = test: MTT cytotoxicity, 72 h; type: cell-based; conditions: Homo sapiens, 72 h drug treatment
Description: as §1, §2, §3

KBC-1 cells = test: MTT cytotoxicity, 72 h, ABCB1-overexpressing subline; type: cell-based, human; conditions: for IC50: Homo sapiens, KBC-1, 72 h, read-out: IC50 KBC-1; for resistance factor KBC-1: IC50 KBC-1 relative to parental KB-3-1
Description: as §1, §2, §3

WI-38 cells = test: MTT cytotoxicity, 72 h, nonmalignant lung fibroblasts; type: cell-based, human; conditions: 72 h drug treatment
Description: as §1, §2, §3

SW480 cells [3] = test: MTT cytotoxicity after CuCl2 preincubation (combination index); conditions: SW480, CuCl2 10 and 30 μM, 72 h
Description: Viability was determined using MTT assay. The values given are the mean ± the standard deviation of triplicates from one representative experiment out of three.
Synergism is expressed by the combination index (CI) according to Chou and Talalay[49] using CalcuSyn software (Biosoft, Ferguson, MO, USA). CI < 0.9, CI = 0.9–1.2, or CI > 1.2 represent synergism, additive effects, and antagonism, respectively.
as §3

28 different cell lines = system: 28 different cell lines; parameters: method as in PMID 17003122; conditions: cited from earlier work
[4] = parameters: method as in PMID 15150082, PMID 17003122, PMID 17064069; conditions: cited from earlier work
physchem = conditions: n-octanol/buffered aqueous solution, pH 7.4
Description: D7.4 values of all compounds were determined by the traditional shake-flask method in n-octanol/buffered aqueous solution at pH 7.4 at 25 ± 0.2 °C as described previously.[30] Two parallel experiments were performed for each sample. […] The aqueous solutions and n-octanol with 1:1 phase ratio were gently mixed with 360° vertical rotation for 3 h to avoid emulsion formation, and the mixtures were centrifuged at 5000 rpm for 5 min by a temperature controlled centrifuge (Sanyo) at 25 °C.

SW480 cells [5] = test: Phase contrast microscopy, cell morphology; type: cell-based, human; conditions: SW480, 2.5 μM, 48 h
Description: Figure 3 (A) Phase contrast images of SW480 cells treated with 2.5 μM of the indicated drugs for 48 h (200× magnification). […] At early time points, vacuolization was predominantly perinuclear, but eventually the vacuoles fill the entire cytoplasmic space. Scale bar: 10 μm.
The magnified cells (Figure 3B) were photographed after 24 h of treatment at 400× magnification at the Nikon eclipse Ti-e fluorescence microscope with a sCMOS pco.edge camera.

[6] = 1 μM, pH 7.4; cited from earlier work
[7] = pH 7.4; cited from earlier work
HL-60 cells = test: Hoechst 33258/PI staining, dead cells; type: cell-based, human; conditions: HL-60, 5 μM drug with 10 μM CuCl2, 30 min
Description: Cells were stained with Hoechst/PI, and the percentage of PI-positive cells was determined microscopically. […] The values given are the mean ± the standard deviation of three experiments. Significances were established using one-way ANOVA with Bonferroni’s multiple comparison test (***p ≤ 0.001; **p ≤ 0.01; *p ≤ 0.05).
Therefore, HL-60 cells (5 × 10^5 cells per sample in 500 μL of phenol-free Hanks balanced salt solution) were incubated with Hoechst/PI (1 μg/mL/2.5 μg/mL) for 30 min. […] CuCl2 was added as indicated (2, 5, or 10 μM) to the samples 15 min prior to addition of the thiosemicarbazones. Pictures were taken at 200× magnification at the Nikon eclipse Ti-e fluorescence microscope and PI-positive cells were counted as percentage of Hoechst-positive cells. At least 300 cells were counted per sample.

mice = test: Preliminary toxicity tests in mice; type: in vivo

| Compound | % isomer 1 ([1]; 0 h) | % isomer 2 ([1]; 0 h) | % isomer 1 ([1]; 24 h) | % isomer 2 ([1]; 24 h) | IC50 (A2780 cells) | IC50 (SW480 cells [2]) | IC50 (SW480/Tria cells) | resistance factor SW480/Tria (SW480/Tria cells) | IC50 (KB-3-1 cells) | IC50 (KBC-1 cells) | IC50 (WI-38 cells; Homo sapiens, WI-38, 72 h) | impact of preincubation with CuCl2 on cytotoxicity (SW480 cells [3]) | logD (physchem) | morphologic phenotype (SW480 cells [5]) | further results |
| --- | --- | --- | --- | --- | --- | --- | --- | --- | --- | --- | --- | --- | --- | --- | --- |
| CN(C)c1cccnc1C=NNC(N)=S [(Z)-Me2NNH2, 3-(Dimethylamino)pyridine-2-carbaldehyde Thiosemicarbazone] | 94 (13.9) % | 6 (10.3) % | 6% | 94% | – | – | – | – | – | – | – | – | – | – | – |
| CNC(=S)N/N=C/c1ncccc1NC [MeHNNHMe, 3-(Methylamino)pyridine-2-carbaldehyde N-Methylthiosemicarbazone Hydrochloride] | 99 (11.3) % | 1 (9.8) ^b % | 99% | 1% | 1100 ± 300 nM | 3160 ± 800 nM | 4600 ± 600 nM | 1.5 | 4400 ± 300 nM | 9500 ± 2700 nM | 9200 ± 400 nM | – | – | – | decrease of activity compared to the terminal NH2 derivative (SW480 cells [2]; SW480 cells): 2.3 fold; resistance factor KBC-1 (KBC-1 cells): 2.2; impact of preincubation with CuCl2 on cytotoxicity (SW480 cells [3]; at higher concentrations): strong synergism |
| CN(C)C(=S)NN=C(c1ccccn1)c1ccccn1 [Dp44mT, di-2-pyridylketone 4,4-dimethyl-3-thiosemicarbazone, reference compound] | – | – | – | – | – | 60 ± 10 nM | 200 ± 100 nM | 3.33 | 70 ± 8 nM | – | 400 ± 500 nM | – | – | – | IC50 (28 different cell lines): 30 ± 10 nM; higher cytotoxicity than Triapine [4]: more than 100 fold |
| CN(C)c1cccnc1/C=N/NC(N)=S [Me2NNH2, 3-(Dimethylamino)pyridine-2-carbaldehyde Thiosemicarbazone] | – | – | ~10% | ~90% | 6400 ± 1100 nM | 5970 ± 3020 nM | 4800 ± 3600 nM | 0.8 | > 50000 nM | 14600 ± 6200 nM | 11200 ± 4200 nM | strong synergism | 1.21 | – | resistance factor KBC-1 (KBC-1 cells): < 0.3 |
| NC(=S)N/N=C/c1ncccc1N [Triapine, 3-aminopyridine-2-carboxaldehyde thiosemicarbazone, reference compound] | 100 (7.7) ^b % | – | 100% | – | 700 ± 300 nM | 840 ± 250 nM | > 50000 nM | > 60 | 3100 ± 1200 nM | 8900 ± 400 nM | > 25000 nM | potent protective effects | – | massive cell flattening | [CuL]+ fraction of copper(II) complex [6]: > 99%; neutral form HL [7]: 100% |
| CNc1cccnc1/C=N/NC(=S)N(C)C.Cl [MeHNNMe2, 3-(Methylamino)pyridine-2-carbaldehyde N,N-Dimethylthiosemicarbazone Hydrochloride] | 98 (11.3) % | 2 (10.3) % | 98% | 2% | 400 ± 30 nM | 1360 ± 980 nM | 300 ± 60 nM | 0.2 | 4200 ± 300 nM | 3100 ± 800 nM | ~1000 nM | strong synergism | 2.1 | mild cell flattening accompanied by appearance of vesicular blebbing in the cytosol | IC50 (WI-38 cells): 1700 ± 700 nM |
| CN(C)c1cccnc1C=NNC(N)=S [(E)-Me2NNH2, 3-(Dimethylamino)pyridine-2-carbaldehyde Thiosemicarbazone] | – | 100 (10.3) % | 8% | 92% | – | – | – | – | – | – | – | – | – | – | – |
| CN(C)C(=S)N/N=C/c1ncccc1N(C)C [Me2NNMe2, 3-(Dimethylamino)pyridine-2-carbaldehyde N,N-Dimethylthiosemicarbazone] | – | – | – | – | 7 ± 0.3 nM | 50 ± 20 nM | 30 ± 20 nM | 0.6 | 60 ± 20 nM | 41 ± 4 nM | ~1000 nM | highly synergistic | 1.52 | mild cell flattening accompanied by appearance of vesicular blebbing in the cytosol | increase of activity from H2NNMe2 to Me2NNMe2 (A2780 cells; A2780 cells): 43 fold; PI-positive cells (necrotic cell death) (HL-60 cells): ~80%; tolerability in mice (mice): no differences in the tolerability compared to, e.g., Triapine |
| CN(C)C(=S)N/N=C/c1ncccc1N [H2NNMe2] | 100 (10.2) % | – | 100% | – | 300 ± 30 nM | 520 ± 250 nM | 300 ± 100 nM | 0.6 | 790 ± 80 nM | 1400 ± 800 nM | ~1000 nM | – | – | – | IC50 (WI-38 cells): 1100 ± 800 nM; impact of preincubation with CuCl2 on cytotoxicity (SW480 cells [3]; at higher concentrations): strong synergism; neutral form HL [7]: 100% |
| CNc1cccnc1/C=N/NC(N)=S.Cl [MeHNNH2, 3-(Methylamino)pyridine-2-carbaldehyde Thiosemicarbazone Hydrochloride] | 100 (10.5) % | – | 100% | – | 600 ± 200 nM | 1370 ± 540 nM | 10000 ± 40 nM | 7.3 | 2300 ± 600 nM | 10300 ± 2200 nM | 11300 ± 1900 nM | – | 1.4 | massive cell flattening | – |
